Results taken from patent US20230339981A1, “KRAS G12D MODULATING COMPOUNDS” (priority 2022, published 2023).

Columns and labels:
GDP-loaded KRAS G12D = GDP-loaded KRAS G12D (Homo sapiens (Human), UniProt P01116, G12D); test: KRAS G12D (GDP) biochemical assay (TR-FRET probe displacement); type: binding; conditions: 2 hours
Summary of the method: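 TR-FRET probe displacement: 1:3 DMSO serial dilutions pre-incubated 30 min with GDP-bound KRAS G12D, followed by Eu-streptavidin/probe for 2 h at room temperature (Hepes pH 7.4, NaCl, MgCl2, Tween-20 buffer). IC50 defined as concentration halving TR-FRET ratio, from sigmoidal dose-response fit.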

GP2D (KRAS G12D) cells = test: 2D cell viability assay (CellTiter-Glo); type: cell-based; conditions: 4 days
Summary of the method: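 Viability was read by CellTiter-Glo after 4 days at 37 °C of 2D culture of KRAS G12D GP2D cells (1000/well, RPMI, 10% FBS) on pre-spotted threefold compound dilutions. EC50 was fitted with a sigmoidal dose-response model as the point of half-maximal luminescence loss.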

AsPC-1 (KRAS G12D) cells = test: 3D cell viability assay (spheroids, CellTiter-Glo 3D); type: cell-based; conditions: AsPC-1 cells, 3D spheroids, 4 days
Summary of the method: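 AsPC-1 cells (1000/well) in DMEM with 10% FBS formed spheroids over 3 days at 37 °C in ultra-low attachment plates, then were treated with 1:3 serial dilutions for 4 days. Viability read by CellTiter-Glo 3D luminescence; EC50 as concentration giving 50% signal decrease, sigmoidal fit.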

GDP-loaded KRAS G12D, sequence (P01116-2 other isoform, or with tags, fused parts or gaps G12D): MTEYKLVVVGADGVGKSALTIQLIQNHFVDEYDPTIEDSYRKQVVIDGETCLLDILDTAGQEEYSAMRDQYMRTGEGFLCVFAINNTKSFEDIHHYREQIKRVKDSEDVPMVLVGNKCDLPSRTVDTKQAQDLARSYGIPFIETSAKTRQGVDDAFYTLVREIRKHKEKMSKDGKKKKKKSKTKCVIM

## C#Cc1c(F)ccc2cc(O)cc(-c3nc4c5c(nc(OC[C@@]67CCCN6C[C@H](F)C7)nc5c3F)N3C[C@H]5CC[C@H](N5)[C@@H]3[C@@H](CC)C4)c12 [Example 92, 4-((5S,5aS,6S,9R)-5-ethyl-1-fluoro-12-(((2R,7aS)-2-fluorotetrahydro-1H-pyrrolizin-7a(5H)-yl)methoxy)-4,5,5a,6,7,8,9,10-octahydro-3,10a,11,13,14-pentaaza-6,9-methanonaphtho[1,8-ab]heptalen-2-yl)-5-ethynyl-6-fluoronaphthalen-2-ol]
GDP-loaded KRAS G12D
  IC50: 1.9 nM
GP2D (KRAS G12D) cells; GP2d, 96 h
  EC50: 17.3 nM
AsPC-1 (KRAS G12D) cells; Homo sapiens, ASPC1, 96 h
  EC50: 52 nM

## C#Cc1c(F)ccc2cccc(-c3nc4c5c(nc(OC[C@@]67CCCN6C[C@H](F)C7)nc5c3F)N3C[C@H]5CC[C@H](N5)[C@H]3C[C@H]4C)c12 [Example 95, (4R,5aS,6S,9R)-2-(8-ethynyl-7-fluoronaphthalen-1-yl)-1-fluoro-12-(((2R,7aS)-2-fluorotetrahydro-11H-pyrrolizin-7a(5H)-yl)methoxy)-4-methyl-4,5,5a,6,7,8,9,10-octahydro-3,10a,11,13,14-pentaaza-6,9-methanonaphtho[1,8-ab]heptalene]
GDP-loaded KRAS G12D
  IC50: 0.6 nM
GP2D (KRAS G12D) cells; GP2d, 96 h
  EC50: 31.9 nM
AsPC-1 (KRAS G12D) cells; Homo sapiens, ASPC1, 96 h
  EC50: 200 nM

## C#Cc1c(F)ccc2cc(O)cc(-c3nc4c5c(nc(OC[C@@]67CCCN6C[C@H](F)C7)nc5c3F)N3C[C@H]5CC[C@H](N5)[C@H]3CC4(F)F)c12 [Example 97, 5-ethynyl-6-fluoro-4-((5aR,6S,9R)-1,4,4-trifluoro-12-(((2R,7aS)-2-fluorotetrahydro-1H-pyrrolizin-7a(5H)-yl)methoxy)-4,5,5a,6,7,8,9,10-octahydro-3,10a,11,13,14-pentaaza-6,9-methanonaphtho[1,8-ab]heptalen-2-yl)naphthalen-2-ol]
GDP-loaded KRAS G12D
  IC50: 0.2 nM
GP2D (KRAS G12D) cells; GP2d, 96 h
  EC50: 7.7 nM
AsPC-1 (KRAS G12D) cells; Homo sapiens, ASPC1, 96 h
  EC50: 55 nM

## Oc1cc(-c2nc3c4c(nc(OC[C@@]56CCCN5C[C@@]5(CC5(F)F)C6)nc4c2F)N2C[C@H]4CC[C@H](N4)[C@H]2CC3)c2c(OC(F)(F)F)c(F)ccc2c1 [Example 99, 4-((5aR,6S,9R)-12-(((1S,7a'S)-2,2-difluorodihydro-1′H,3′H-spiro[cyclopropane-1,2′-pyrrolizin]-7a′(5′H)-yl)methoxy)-1-fluoro-4,5,5a,6,7,8,9,10-octahydro-3,10a,11,13,14-pentaaza[6,9]methanonaphtho[1,8-ab]heptalen-2-yl)-6-fluoro-5-(trifluoromethoxy)naphthalen-2-ol]
GDP-loaded KRAS G12D
  IC50: 0.6 nM
GP2D (KRAS G12D) cells; GP2d, 96 h
  EC50: 7.4 nM
AsPC-1 (KRAS G12D) cells; Homo sapiens, ASPC1, 96 h
  EC50: 110 nM

## Oc1cc(-c2nc3c4c(nc(OCC5(CN6CCC(OC(F)(F)F)CC6)CC5)nc4c2F)N2C[C@H]4CC[C@H](N4)[C@H]2CC3)c2c(OC(F)(F)F)c(F)ccc2c1 [Example 102, 6-fluoro-4-((5aR,6S,9R)-1-fluoro-12-((1-((4-(trifluoromethoxy)piperidin-1-yl)methyl)cyclopropyl)methoxy)-4,5,5a,6,7,8,9,10-octahydro-3,10a,11,13,14-pentaaza-6,9-methanonaphtho[1,8-ab]heptalen-2-yl)-5-(trifluoromethoxy)naphthalen-2-ol]
GDP-loaded KRAS G12D
  IC50: 3.3 nM
GP2D (KRAS G12D) cells; GP2d, 96 h
  EC50: 39.5 nM
AsPC-1 (KRAS G12D) cells; Homo sapiens, ASPC1, 96 h
  EC50: 680 nM

## C#Cc1c(F)ccc2cc(O)cc(-c3nc4c5c(nc(OC[C@@]67CCCN6[C@H](COc6cccc(S(F)(F)(F)(F)F)c6)CC7)nc5c3F)N3C[C@H]5CC[C@H](N5)[C@H]3CC4)c12 [Example 104, 5-ethynyl-6-fluoro-4-((5aR,6S,9R)-1-fluoro-12-(((3S,7aS)-3-((3-(pentafluoro-λ6-sulfaneyl)phenoxy)methyl)tetrahydro-1H-pyrrolizin-7a(5H)-yl)methoxy)-4,5,5a,6,7,8,9,10-octahydro-3,10a,11,13,14-pentaaza-6,9-methanonaphtho[1,8-ab]heptalen-2-yl)naphthalen-2-ol]
GDP-loaded KRAS G12D
  IC50: 0.8 nM
GP2D (KRAS G12D) cells; GP2d, 96 h
  EC50: 8.7 nM
AsPC-1 (KRAS G12D) cells; Homo sapiens, ASPC1, 96 h
  EC50: 53 nM

## C#Cc1c(F)ccc2cc(O)cc(-c3nc4c5c(nc(OCC6(CN7CCC(OC(F)(F)F)CC7)CC6)nc5c3F)N3C[C@H]5CC[C@H](N5)[C@H]3CC4)c12 [Example 106, 5-ethynyl-6-fluoro-4-((5aR,6S,9R)-1-fluoro-12-((1-((4-(trifluoromethoxy)piperidin-1-yl)methyl)cyclopropyl)methoxy)-4,5,5a,6,7,8,9,10-octahydro-3,10a,11,13,14-pentaaza-6,9-methanonaphtho[1,8-ab]heptalen-2-yl)naphthalen-2-ol]
GDP-loaded KRAS G12D
  IC50: 0.2 nM
GP2D (KRAS G12D) cells; GP2d, 96 h
  EC50: 1.9 nM
AsPC-1 (KRAS G12D) cells; Homo sapiens, ASPC1, 96 h
  EC50: 8.2 nM

## C#Cc1c(F)ccc2cc(O)cc(-c3nc4c5c(nc(OC[C@@]67CCCN6[C@H](COC(C)(C(F)(F)F)C(F)(F)F)CC7)nc5c3F)N3C[C@H]5CC[C@H](N5)[C@H]3CC4)c12 [Example 109]
GDP-loaded KRAS G12D
  IC50: 0.1 nM
GP2D (KRAS G12D) cells; GP2d, 96 h
  EC50: 1.2 nM
AsPC-1 (KRAS G12D) cells; Homo sapiens, ASPC1, 96 h
  EC50: 0.8 nM

## C#Cc1c(F)ccc2cc(O)cc(-c3nc4c5c(nc(OC[C@@]67CCCN6[C@H](COC(C6CC6)C(F)(F)F)CC7)nc5c3F)N3C[C@H]5CC[C@H](N5)[C@H]3CC4)c12 (stereo partly drawn) [Example 110, 4-((5aR,6S,9R)-12-(((3S,7aS)-3-((1-cyclopropyl-2,2,2-trifluoroethoxy)methyl)tetrahydro-1H-pyrrolizin-7a(5H)-yl)methoxy)-1-fluoro-4,5,5a,6,7,8,9,10-octahydro-3,10a,11,13,14-pentaaza-6,9-methanonaphtho[1,8-ab]heptalen-2-yl)-5-ethynyl-6-fluoronaphthalen-2-ol]
GDP-loaded KRAS G12D
  IC50: 0.3 nM
GP2D (KRAS G12D) cells
  EC50: 36.1 nM
AsPC-1 (KRAS G12D) cells
  EC50: 51 nM

## C#Cc1c(F)ccc2cccc(-c3nc4c5c(nc(OC[C@@]67CCCN6[C@H](COC(C6CC6)C(F)(F)F)CC7)nc5c3F)N3C[C@H]5CC[C@H](N5)[C@H]3CC4)c12 (stereo partly drawn) [Example 111, (5aR,6S,9R)-12-(((3S,7aS)-3-((1-cyclopropyl-2,2,2-trifluoroethoxy)methyl)tetrahydro-1H-pyrrolizin-7a(5H)-yl)methoxy)-2-(8-ethynyl-7-fluoronaphthalen-1-yl)-1-fluoro-4,5,5a,6,7,8,9,10-octahydro-3,10a,11,13,14-pentaaza-6,9-methanonaphtho[1,8-ab]heptalene]
GDP-loaded KRAS G12D
  IC50: 0.7 nM
GP2D (KRAS G12D) cells; GP2d, 96 h
  EC50: 69.9 nM
AsPC-1 (KRAS G12D) cells; Homo sapiens, ASPC1, 96 h
  EC50: 360 nM

## C#Cc1c(F)ccc2cccc(-c3nc4c5c(nc(OC[C@@]67CCCN6[C@H](COC(C)(C(F)(F)F)C(F)(F)F)CC7)nc5c3F)N3C[C@H]5CC[C@H](N5)[C@H]3CC4)c12 [Example 112, (5aR,6S,9R)-2-(8-ethynyl-7-fluoronaphthalen-1-yl)-1-fluoro-12-(((3S,7aS)-3-(((1,1,1,3,3,3-hexafluoro-2-methylpropan-2-yl)oxy)methyl)tetrahydro-1H-pyrrolizin-7a(5H)-yl)methoxy)-4,5,5a,6,7,8,9,10-octahydro-3,10a,11,13,14-pentaaza-6,9-methanonaphtho[1,8-ab]heptalene]
GDP-loaded KRAS G12D
  IC50: 0.3 nM
GP2D (KRAS G12D) cells; GP2d, 96 h
  EC50: 41 nM
AsPC-1 (KRAS G12D) cells; Homo sapiens, ASPC1, 96 h
  EC50: 270 nM

## C#Cc1c(F)ccc2cccc(-c3nc4c5c(nc(OC[C@@]67C[C@@H](F)CN6CC6(CC6)C7)nc5c3F)N3C[C@H]5CC[C@H](N5)[C@H]3CC4)c12 [Example 113, (5aR,6S,9R)-2-(8-ethynyl-7-fluoronaphthalen-1-yl)-1-fluoro-12-(((6′R,7a′R)-6′-fluorodihydro-1′H,3′H-spiro[cyclopropane-1,2′-pyrrolizin]-7a′(5′H)-yl)methoxy)-4,5,5a,6,7,8,9,10-octahydro-3,10a,11,13,14-pentaaza-6,9-methanonaphtho[1,8-ab]heptalene]
GDP-loaded KRAS G12D
  IC50: 0.2 nM
GP2D (KRAS G12D) cells; GP2d, 96 h
  EC50: 7.3 nM
AsPC-1 (KRAS G12D) cells; Homo sapiens, ASPC1, 96 h
  EC50: 57 nM

## C#Cc1c(F)ccc2cccc(-c3nc4c5c(nc(OC[C@@]67CCCN6[C@H](COC(C)(C(F)(F)F)C(F)(F)F)CC7)nc5c3F)N3C[C@H]5CC[C@H](N5)[C@H]3CCC4)c12 [Example 115, (6aR,7S,10R)-2-(8-ethynyl-7-fluoronaphthalen-1-yl)-1-fluoro-13-(((3S,7aS)-3-(((1,1,1,3,3,3-hexafluoro-2-methylpropan-2-yl)oxy)methyl)tetrahydro-1H-pyrrolizin-7a(5H)-yl)methoxy)-5,6,6a,7,8,9,10,11-octahydro-4H-3,11a,12,14,15-pentaaza-7,10-methanocyclohepta[4,5]cycloocta[1,2,3-de]naphthalene]
GDP-loaded KRAS G12D
  IC50: 0.1 nM
GP2D (KRAS G12D) cells; GP2d, 96 h
  EC50: 11.5 nM
AsPC-1 (KRAS G12D) cells; Homo sapiens, ASPC1, 96 h
  EC50: 100 nM

## C#Cc1c(F)ccc2cccc(-c3nc4c5c(nc(OC[C@@]67CCCN6C[C@H](F)C7)nc5c3F)N3C[C@H]5CC[C@H](N5)[C@H]3[C@H](C)O4)c12 [Example 116, (5S,5aS,6S,9R)-2-(8-ethynyl-7-fluoronaphthalen-1-yl)-1-fluoro-12-(((2R,7aS)-2-fluorotetrahydro-1H-pyrrolizin-7a(5H)-yl)methoxy)-5-methyl-5a,6,7,8,9,10-hexahydro-5H-4-oxa-3,10a,11,13,14-pentaaza-6,9-methanonaphtho[1,8-ab]heptalene]
GDP-loaded KRAS G12D
  IC50: 0.6 nM
GP2D (KRAS G12D) cells; GP2d, 96 h
  EC50: 6 nM
AsPC-1 (KRAS G12D) cells; Homo sapiens, ASPC1, 96 h
  EC50: 25 nM

## C#Cc1c(F)ccc2cccc(-c3nc4c5c(nc(OC[C@@]67CCCN6[C@H](COC(C)(C)C)CC7)nc5c3F)N3C[C@H]5CC[C@H](N5)[C@H]3CC4)c12 [Example 119, (5aR,6S,9R)-12-(((3S,7aS)-3-(tert-butoxymethyl)tetrahydro-1H-pyrrolizin-7a(5H)-yl)methoxy)-2-(8-ethynyl-7-fluoronaphthalen-1-yl)-1-fluoro-4,5,5a,6,7,8,9,10-octahydro-3,10a,11,13,14-pentaaza-6,9-methanonaphtho[1,8-ab]heptalene]
GDP-loaded KRAS G12D
  IC50: 2.4 nM
GP2D (KRAS G12D) cells; GP2d, 96 h
  EC50: 125 nM
AsPC-1 (KRAS G12D) cells; Homo sapiens, ASPC1, 96 h
  EC50: 390 nM
